Assay results reported in patent US20240389528A1, “PERFORMANCE GAIN IN ALS INHIBITOR HERBICIDE TOLERANT BETA VULGARIS PLANTS BY COMBINATION OF BEST FITTING ALS LARGE AND SMALL SUBUNITS” (BAYER AKTIENGESELLSCHAFT, priority 2021, published 2024).

Test system: B. vulgaris plants comprising the BvALS_W569L allele
Assay: Sensitivity of Beta vulgaris plants to ALS inhibitor herbicide (BvALS_W569L allele vs wild type allele)
Type: in vivo

COc1cc(OC)nc(NC(=O)NS(=O)(=O)c2cc(NC=O)ccc2C(=O)N(C)C)n1 [foramsulfuron]
times less sensitive to the ALS inhibitor herbicide compared to B. vulgaris plants comprising a BvALS wild type allele: at least 2000 times
